Experimental data reported in US7563781B2, “Triazolopyrimidine derivatives” (Janssen Pharmaceutica NV, priority 2006, dated 2009).
Each block holds one molecule with its values, some of them ahead of it.

What was measured:
[1] = target: T1, Focal Adhesion Kinase (full-length Flag-tagged human FAK) (Homo sapiens, UniProt Q05397); test: in vitro FAK ELISA kinase assay; assay type: biochemical; conditions: compound 10 uM; ATP 2 uM; read-out: FAK % Inhib ave: 10 uM
T1 construct: a purified recombinant full-length Flag-tagged human FAK protein; Flag; made in house; host or cells: baculovirus infected insect cells
T1 sequence (Q05397 whole entry): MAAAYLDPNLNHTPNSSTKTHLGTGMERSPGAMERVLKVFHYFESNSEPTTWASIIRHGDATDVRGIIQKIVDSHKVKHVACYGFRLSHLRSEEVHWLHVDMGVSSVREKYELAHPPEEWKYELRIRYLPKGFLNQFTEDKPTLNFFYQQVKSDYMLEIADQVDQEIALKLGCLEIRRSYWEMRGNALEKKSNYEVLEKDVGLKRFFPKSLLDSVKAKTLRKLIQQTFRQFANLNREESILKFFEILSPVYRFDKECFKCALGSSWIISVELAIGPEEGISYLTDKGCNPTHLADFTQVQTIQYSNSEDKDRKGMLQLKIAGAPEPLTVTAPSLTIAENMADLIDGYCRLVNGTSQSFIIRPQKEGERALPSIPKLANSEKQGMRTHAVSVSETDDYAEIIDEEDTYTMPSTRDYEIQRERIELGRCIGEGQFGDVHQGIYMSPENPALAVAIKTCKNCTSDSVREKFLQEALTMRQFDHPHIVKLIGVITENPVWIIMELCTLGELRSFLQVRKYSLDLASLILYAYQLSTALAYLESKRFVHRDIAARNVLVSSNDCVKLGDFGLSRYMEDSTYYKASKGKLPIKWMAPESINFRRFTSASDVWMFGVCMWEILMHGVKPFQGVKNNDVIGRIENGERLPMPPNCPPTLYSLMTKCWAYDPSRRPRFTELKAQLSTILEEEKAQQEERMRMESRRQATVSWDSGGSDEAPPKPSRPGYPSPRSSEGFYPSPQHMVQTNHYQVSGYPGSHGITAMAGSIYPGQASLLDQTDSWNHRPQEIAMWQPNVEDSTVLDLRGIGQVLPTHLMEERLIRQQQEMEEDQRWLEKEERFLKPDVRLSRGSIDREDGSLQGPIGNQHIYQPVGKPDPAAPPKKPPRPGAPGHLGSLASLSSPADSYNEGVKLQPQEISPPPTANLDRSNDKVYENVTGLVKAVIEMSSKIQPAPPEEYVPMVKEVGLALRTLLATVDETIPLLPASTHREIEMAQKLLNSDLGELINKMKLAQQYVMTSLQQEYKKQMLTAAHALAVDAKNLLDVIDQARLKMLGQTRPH
Description: Compound effects on the tyrosine kinase activity of Focal Adhesion Kinase were assessed with an in vitro FAK ELISA kinase assay. This assay measures the incorporation of phosphate from ATP into a FAK substrate protein using an antibody specific for phospho-tyrosine.
500 ng of FAKsubstrate, a purified recombinant fusion protein of GST and a 73 amino acid region surrounding the Tyr397 human FAK autophosphorylation site, was coated in a high-protein binding polystyrene 96 well plate overnight in a buffer containing 50 mM Hepes, pH 7.5, 150 mM NaCl, 0.1 mM Na-oVO4, 0.1 mM NaF and 1 protease inhibitor tablet/10 mL (Complete Mini-EDTA-free, Roche). The next day this solution was removed and the wells were incubated with 0.2% BSA in 50 mM Hepes, pH 7.5, 150 mM NaCl, 0.2 mM PMSF for 1 hour at 30° C. to block unoccupied protein binding sites. The wells were then washed with 50 mM Hepes, pH 7.5, 150 mM NaCl, 0.1% Tween 20. The kinase reaction was performed with 25 ng/well of FAK enzyme (a purified recombinant full-length Flag-tagged human FAK protein made in baculovirus infected insect cells) in 0.1 mL of a buffer containing 25 mM Hepes, pH 7.5, 5 mM MgCl2, 0.5 mM MnCl2, 10 uM NaoVO4, 0.2 mM PMSF. Compounds were added from 30% DMSO stock solutions for a screening concentration of 10 uM or IC50 determinations from 50 uM in half-log dilutions. The reaction is initiated with addition of ATP to a final concentration of 2 uM and incubated at 30° C. for 1 hour. Following the kinase reaction step, the wells were washed and incubated with 50 ng of Horseradish Peroxidase conjugated anti-phosphotyrosine antibody (PT-66 HRP, Sigma) in 0.1 mL wash buffer for 1 hour at 30° C. Wells were then washed and 0.1 mL HRP substrate, Tetra-methyl Benzidine (Sigma) was added and the color reaction allowed to proceed for 2-3 minutes followed by the addition of 0.1 mL of 1N H2SO4 to stop the HRP reaction. Percent inhibition of FAK kinase activity was calculated by comparing compound containing wells to wells treated with diluent only. Background was subtracted from all wells and was defined as the activity of FAK using 500 ng/well of BSA as a substrate. IC50 values were obtained using Prism data analysis software.

[2] = target: T2, CAK complex (human Cdk7, human Cyclin H, MAT-1) (Homo sapiens, UniProt P50613); test: in vitro time-resolved-fluorescence assay for the CAK kinase activity; assay type: biochemical; conditions: compound 20 uM; read-out: CAK % inhib; 20 uM
T2 construct: made in house; host or cells: SF-900 insect cells co-infected with Flag-Cdk7 and Bab-Cyclin H baculoviruses
T2 sequence (P50613 with tags, fused parts or gaps): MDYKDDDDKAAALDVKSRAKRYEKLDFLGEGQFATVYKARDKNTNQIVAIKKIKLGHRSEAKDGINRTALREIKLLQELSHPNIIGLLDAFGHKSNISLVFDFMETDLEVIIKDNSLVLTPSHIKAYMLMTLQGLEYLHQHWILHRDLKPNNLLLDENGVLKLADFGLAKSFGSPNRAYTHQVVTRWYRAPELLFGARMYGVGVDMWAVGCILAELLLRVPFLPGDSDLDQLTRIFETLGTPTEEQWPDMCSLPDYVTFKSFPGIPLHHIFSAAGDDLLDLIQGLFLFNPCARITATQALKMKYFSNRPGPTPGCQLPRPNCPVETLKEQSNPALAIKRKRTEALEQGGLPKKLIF
T2 sequence (as listed by the source partner): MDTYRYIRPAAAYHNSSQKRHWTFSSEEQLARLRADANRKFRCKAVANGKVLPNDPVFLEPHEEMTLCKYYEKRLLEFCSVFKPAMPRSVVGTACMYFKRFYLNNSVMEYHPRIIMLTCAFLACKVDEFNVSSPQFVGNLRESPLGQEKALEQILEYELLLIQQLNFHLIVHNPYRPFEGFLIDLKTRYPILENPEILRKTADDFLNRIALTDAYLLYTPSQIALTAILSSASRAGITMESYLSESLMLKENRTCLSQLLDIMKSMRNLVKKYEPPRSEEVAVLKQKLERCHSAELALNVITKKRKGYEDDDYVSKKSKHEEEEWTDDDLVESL
Excerpt: Cyclin Dependent Kinase Activating Kinase (CAK) is a complex of proteins that phosphorylates a well-conserved threonine (Thr) residue in all mammalian cyclin dependent kinases (cdks). The CAK complex can also phosphorylate several components of the transcriptional machinery, such as the C-terminal domain (CTD) of RNA polymerase II in the TFIIH transcription complex. The CAK complex localizes to the nucleus, and is composed of three proteins: Cdk7, Cyclin H, and MAT-1. The exemplified method teaches the cloning and expression CAK subunits, particularly a human Cdk7 and a human Cyclin H. The method of the present invention exemplified herein is equally applicable to the cloning and expression of any CAK subunit, such as variants, structural or functional polymorphisms of the human Cdk7 or the human Cyclin H, or their orthologs in other animals such as rat, mouse, pig, dog and monkey.
The CAK complex was purified from co-infected SF-900 insect cells at 48 hours post infection by batch immunoaffinity purification. The infected cells were pelleted by centrifugation and lysed in 1/10 of the culture volume in a solution containing 50 mM Hepes pH 7.5, 10 mM MgCl2, 1 mM DTT, 10 mM Beta-Glycerol phosphate, 20 uM Na-oVO4, 0.2 mM PMSF and 1 μg/mL each of leupeptin, aprotinin, and pepstatin on ice. Cells were mechanically lysed by trituration through a 22-gauge needle followed by sonication or alternately by nitrogen cavitation. The lysed cells were centrifuged at 50,000×G for 1 hour at 4° C. to remove debris and the supernatant was applied to 1/10 volume of prewashed Flag-M2 immunoaffinity resin (Sigma). The CAK complex, by nature of the Flag tagged Cdk7 protein, was allowed to bind to the Flag antibody of the resin overnight at 4° C. with gentle rocking. The resin was washed 4 times with 5 resin volumes of lysis buffer and the bound proteins were eluted by competition with 0.5 mg/mL Flag peptide ([…], American Peptide Co, Inc., SEQ ID NO: 16) in a total of 2 resin volumes. To remove the Flag peptide, the eluted material was applied to PD-10 gel filtration columns (Pharmacia) under conditions recommended by the manufacturer.
Measurement of CAK kinase activity was accomplished using an antibody methodology in which a Europium labeled antibody binds preferentially to serine phosphorylated GST-CTD substrate. The long-lived europium label fluorescence allows a greater signal-to-noise ratio due to the delay in reading the emission wavelength, thereby eliminating signals from immediate fluorescence and fluorescent pharmaceutical screening compounds.
The time-resolved-fluorescence assay for the CAK kinase activity is performed as follows. In a well of a black glutathione coated 96 well micro titer plate (Pierce Chemical, No. 15360), the following reagents were added: 1) 25 ul substrate solution containing 500 ng purified GST-CTD in a buffer having 50 mM Hepes pH 7.5, 10 mM MgCl2, 1 mM DTT, 0.2 mM PMSF, 40 uM Na-oVO4, and 22 uM ATP (as a background control, the buffer, including ATP but not substrate was added); 2) 2.5 ul of screening compounds in a diluent containing 30% DMSO/25 mM Hepes pH7.5 (As a control, the diluent only was added. Typically the final concentration of compound is 1 uM); and 3) 250 ng CAK enzyme complex in enzyme buffer containing 25 ul of 50 mM Hepes pH 7.5, 10 mM MgCl2, 1 mM DTT, 0.2 mM PMSF, and 40 uM Na-oVO4. The micro titer plate was shaken for 2 minutes on a titer plate shaker and allowed to incubate at 30° C. for 20 minutes.
Subsequently, Kinase Stop Solution (75 mM EDTA, 0.2 mM PMSF, 1 mM DTT, 120 uM Na oVO4 in PBS) was added (50 ul/well). The plate was shaken for 2 minutes and incubated overnight at room temperature to allow substrate binding to the wells. The plate contents were flicked out, and the wells of the plate were washed 4 times with 350 ul of wash buffer (Delphia wash buffer, Perkin-Elmer, Inc.). The plate was tapped dry. […]

- inhibition at 10 µM [1]: 63.6%
- inhibition at 20 µM [2]: 51.3%
Structure (SMILES): NS(=O)(=O)c1cccc(Nc2ncc3nnn(-c4cccc(S(N)(=O)=O)c4)c3n2)c1 [Compound 47]

- inhibition at 10 µM [1]: 7.44%
- inhibition at 20 µM [2]: -37.4%
Structure (SMILES): CCCCNS(=O)(=O)c1cccc(Nc2ncc3nnn(-c4cccc(S(=O)(=O)NCCCC)c4)c3n2)c1 [Compound 48]

- inhibition at 10 µM [1]: 99.5%
- inhibition at 20 µM [2]: 44.6%
Structure (SMILES): CCCCNS(=O)(=O)c1cccc(-n2nnc3cnc(Nc4ccc(C(=O)NCCN(CC)CC)cc4)nc32)c1 [Compound 49]

- inhibition at 10 µM [1]: 48.4%
- inhibition at 20 µM [2]: 31.7%
Structure (SMILES): CCCCNS(=O)(=O)c1cccc(-n2nnc3cnc(Nc4ccc(N5CCN(Cc6ccccc6)CC5)cc4)nc32)c1 [Compound 50, 3-{5-[4-(4-Benzyl-piperazin-1-yl)-phenylamino]-[1,2,3]triazolo[4,5-d]pyrimidin-3-yl]-N-butyl-benzene-sulfonamide]

- inhibition at 10 µM [1]: 47.9%
- inhibition at 20 µM [2]: -19.1%
Structure (SMILES): CCN(CC)CCNC(=O)c1ccc(Nc2ncc3nnn(-c4ccc(C(=O)NCCN(CC)CC)cc4)c3n2)cc1 [Compound 52]

- inhibition at 10 µM [1]: 60.5%
- inhibition at 20 µM [2]: 43.7%
Structure (SMILES): CCN(CC)CCNC(=O)c1ccc(-n2nnc3cnc(Nc4ccc(N5CCN(Cc6ccccc6)CC5)cc4)nc32)cc1 [Compound 53, 4-{5-[4-(4-Benzyl-piperazin-1-yl)-phenylamino]-[1,2,3]triazolo[4,5-d]pyrimidin-3-yl}-N-(2-diethylamino-ethyl)-benzamide]

- inhibition at 10 µM [1]: 15.2%
- inhibition at 20 µM [2]: 20.5%
Structure (SMILES): CCCCNS(=O)(=O)c1cccc(Nc2ncc3nnn(-c4ccc(N5CCN(Cc6ccccc6)CC5)cc4)c3n2)c1 [Compound 54, 3-{3-[4-(4-Benzyl-piperazin-1-yl)-phenyl]-3H-[1,2,3]triazolo[4,5-d]pyrimidin-5-ylamino}-N-butyl-benzene-sulfonamide]

- inhibition at 10 µM [1]: 10.8%
- inhibition at 20 µM [2]: -6.2%
Structure (SMILES): CN(C1CCCCC1)S(=O)(=O)c1ccccc1Nc1ncc2nnn(-c3ccc(N4CCN(Cc5ccccc5)CC4)cc3)c2n1 [Compound 55, 2-{3-[4-(4-Benzyl-piperazin-1-yl)-phenyl]-3H-[1,2,3]triazolo[4,5-d]pyrimidin-5-ylamino}-N-cyclohexyl-N-methyl-benzene-sulfonamide]

Further lines, the molecule ahead of its results:

Structure (SMILES): Cc1nccc(-c2cccc(-n3nnc4cnc(Nc5ccc(-c6csnn6)cc5)nc43)c2)n1 [Compound 36, {3-[3-(2-Methyl-pyrimidin-4-yl)-phenyl]-3H-[1,2,3]triazolo[4,5-d]pyrimidin-5-yl}-(4-[1,2,3]thiadiazol-4-yl-phenyl)-amine]
- inhibition at 10 µM [1]: -1.2%
- inhibition at 20 µM [2]: 2.3%

Structure (SMILES): CNC(=O)c1cccc(Nc2ncc3nnn(-c4cccc(-c5ccnc(C)n5)c4)c3n2)c1 [Compound 37, N-Methyl-3-{3-[3-(2-methyl-pyrimidin-4-yl)-phenyl]-3H-[1,2,3]triazolo[4,5-d]pyrimidin-5-ylamino}-benzamide]
- inhibition at 10 µM [1]: -7%
- inhibition at 20 µM [2]: -1.1%

Structure (SMILES): c1ccc(-c2cccc(Nc3ncc4nnn(-c5ccc(-c6csnn6)cc5)c4n3)c2)cc1 [Compound 38, Biphenyl-3-yl-[3-(4-[1,2,3]thiadiazol-4-yl-phenyl)-3H-[1,2,3]triazolo[4,5-d]pyrimidin-5-yl]-amine]
- inhibition at 10 µM [1]: 3.4%
- inhibition at 20 µM [2]: 27.2%

Structure (SMILES): CNC(=O)c1cccc(Nc2ncc3nnn(-c4ccc(-c5csnn5)cc4)c3n2)c1 [Compound 39, N-Methyl-3-[3-(4-[1,2,3]thiadiazol-4-yl-phenyl)-3H-[1,2,3]triazolo[4,5-d]pyrimidin-5-ylamino]-benzamide]
- inhibition at 10 µM [1]: 3.2%
- inhibition at 20 µM [2]: -1.5%

Structure (SMILES): CNC(=O)c1cccc(-n2nnc3cnc(Nc4cccc(-c5ccnc(C)n5)c4)nc32)c1 [Compound 40, N-Methyl-3-{5-[3-(2-methyl-pyrimidin-4-yl)-phenylamino]-[1,2,3]triazolo[4,5-d]pyrimidin-3-yl}-benzamide]
- inhibition at 10 µM [1]: 6.99%
- inhibition at 20 µM [2]: -2.21%

Structure (SMILES): CNC(=O)c1cccc(-n2nnc3cnc(Nc4cccc(-c5ccccc5)c4)nc32)c1 [Compound 41, 3-[5-(Biphenyl-3-ylamino)-[1,2,3]triazolo[4,5-d]pyrimidin-3-yl]-N-methyl-benzamide]
- inhibition at 10 µM [1]: -3.2%
- inhibition at 20 µM [2]: 5.6%

Structure (SMILES): COc1cc(Nc2ncc3nnn(-c4cc(OC)c(OC)c(OC)c4)c3n2)cc(OC)c1OC [Compound 42, (3,4,5-Trimethoxy-phenyl)-[3-(3,4,5-trimethoxy-phenyl)-3H-[1,2,3]triazolo[4,5-d]pyrimidin-5-yl]-amine]
- inhibition at 10 µM [1]: 35.6%
- inhibition at 20 µM [2]: 3.4%

Structure (SMILES): COc1cc(-n2nnc3cnc(Nc4ccc5[nH]ncc5c4)nc32)cc(OC)c1OC [Compound 43]
- inhibition at 10 µM [1]: 33.3%
- inhibition at 20 µM [2]: 11.8%

Structure (SMILES): COc1cc(-n2nnc3cnc(Nc4cccc(S(N)(=O)=O)c4)nc32)cc(OC)c1OC [Compound 44, 3-[3-(3,4,5-Trimethoxy-phenyl)-3H-[1,2,3]triazolo[4,5-d]pyrimidin-5-ylamino]-benzene-sulfonamide]
- inhibition at 10 µM [1]: 24.7%
- inhibition at 20 µM [2]: 10.2%

Structure (SMILES): NS(=O)(=O)c1ccccc1-n1nnc2cnc(Nc3ccc4[nH]ncc4c3)nc21 [Compound 45, 2-[5-(1H-Indazol-5-ylamino)-[1,2,3]triazolo[4,5-d]pyrimidin-3-yl]-benzene-sulfonamide]
- inhibition at 10 µM [1]: 21.8%
- inhibition at 20 µM [2]: 16.2%

Structure (SMILES): NS(=O)(=O)c1ccccc1Nc1ncc2nnn(-c3ccccc3S(N)(=O)=O)c2n1 [Compound 46]
- inhibition at 10 µM [1]: 29.2%
- inhibition at 20 µM [2]: 44.9%
